Earlier results in patent US20120316134A1, “ANAESTHETIC COMPOSITION” (JUROX PTY. LTD., priority 2000, published 2012).

Settings: in vivo

**Q.** Which “Anaesthetic potency relative to alfaxalone” value does the source give for `CC(=O)OCC(=O)[C@H]1CC[C@H]2[C@@H]3CC[C@H]4C[C@H](O)CC[C@]4(C)[C@H]3C(=O)C[C@]12C` [alfadolone acetate, 21-acetoxy-3 α-hydroxy-5α-pregnane-11,20-dione] here?
**A.** half as potent
